This is an account of results in patent US9382226B2, “Aldosterone synthase inhibitors” (Merck Sharp & Dohme Corp., priority 2010, dated 2016).

Assay [1] has as its target T1, human CYP11B1 (Homo sapiens, UniProt P15538).
T1 construct: expressed in transfected cells; host or cells: V79 cells (clone V79-hCYP11B1-8C7)
T1 sequence (P15538 25-503): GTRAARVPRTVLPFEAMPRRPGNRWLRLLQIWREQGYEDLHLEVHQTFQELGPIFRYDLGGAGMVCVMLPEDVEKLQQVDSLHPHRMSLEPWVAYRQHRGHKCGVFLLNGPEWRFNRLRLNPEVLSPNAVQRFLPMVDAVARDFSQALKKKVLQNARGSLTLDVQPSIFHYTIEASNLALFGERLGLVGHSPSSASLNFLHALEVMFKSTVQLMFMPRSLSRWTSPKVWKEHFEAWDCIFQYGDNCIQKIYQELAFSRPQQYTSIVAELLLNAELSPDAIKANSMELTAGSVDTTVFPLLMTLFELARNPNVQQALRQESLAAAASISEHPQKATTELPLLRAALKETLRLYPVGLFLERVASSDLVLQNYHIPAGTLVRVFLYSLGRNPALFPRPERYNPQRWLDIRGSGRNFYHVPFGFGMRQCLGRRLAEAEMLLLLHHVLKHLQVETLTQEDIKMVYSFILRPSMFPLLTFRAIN
As to the kind of experiment: V79-Human-CYP11B1 cell assay (cortisol formation, HTRF). The note with it: V79 cells stably expressing human CYP11B1; substrate 250 nM 11-deoxycortisol; 3 hours. The class given is cell-based. The protocol:
Methods for V79-Human-CYP11B2 and V79-Human-CYP11B1 Assays: V79 cell lines stably expressing the either the human CYP11B2 or the human CYP11B1 enzyme were generated using a standard transfection protocol. V79 cells were transfected with plasmids pTriEx3-Hygro-hCyp11B2 or pTriEx3-Hygro-hCyp11B1 using Lipofectamine2000 reagent. V79 cells that stably express the human CYP11B2 or human CYP11B1 enzyme were selected for and maintained in DMEM supplemented with 10% FBS and 400 μg/mL hygromycin for ˜2 weeks. Single cell clones were generated by […] in DMEM supplemented with 10% FBS and 400 μg/mL hygromycin until single colonies were obtained. […] For testing of inhibitors, cells were harvested at 80% confluency with 0.5% Trypsan-EDTA, washed once in PBS, and reconstituted in DMEM 0.1% BSA media at a cell concentration of 400,000 cells/mL. 25 μl of cells were added to a 384 well tissue culture treated plate and mixed with 0.25 μl of inhibitor or DMSO (1% final DMSO concentration) for 1 hour at 37° C., 5% CO2. […] The reaction was carried out for 3 hours at 37° C., 5% CO2 and was stopped by harvesting the supernatants. The amount of product in the supernatant (aldosterone for CYP11B2 assay and cortisol for the CYP11B1 assay) was measured using HTRF-based assay kit (Aldosterone HTRF-CisBio#64ALDPEB, Cortisol HTRF-CisBio #63IDC002-CORT). IC50's for the inhibitor were determined by plotting the amount of product formed against the concentration of inhibitor using sigmoidal dose-response curve (variable slope) fit in GraphPad.

The target in assay [2] is T2, human CYP11B2 (Homo sapiens, UniProt P19099).
T2 construct: expressed in transfected cells; host or cells: V79 cells (clone V79-hCYP11B2-CLE9)
T2 sequence (P19099 25-503): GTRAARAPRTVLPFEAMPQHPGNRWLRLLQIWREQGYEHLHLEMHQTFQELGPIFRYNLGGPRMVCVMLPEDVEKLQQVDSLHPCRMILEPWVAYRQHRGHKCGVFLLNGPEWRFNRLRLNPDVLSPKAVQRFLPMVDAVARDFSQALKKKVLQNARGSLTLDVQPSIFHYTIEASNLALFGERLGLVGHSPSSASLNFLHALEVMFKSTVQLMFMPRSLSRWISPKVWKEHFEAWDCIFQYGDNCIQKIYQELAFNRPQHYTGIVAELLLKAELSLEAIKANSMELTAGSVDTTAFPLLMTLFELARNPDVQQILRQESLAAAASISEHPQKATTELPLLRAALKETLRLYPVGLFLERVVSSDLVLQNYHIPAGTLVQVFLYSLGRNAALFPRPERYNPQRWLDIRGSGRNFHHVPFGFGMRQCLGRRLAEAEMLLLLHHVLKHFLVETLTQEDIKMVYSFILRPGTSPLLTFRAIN
As to the kind of experiment: V79-Human-CYP11B2 cell assay (aldosterone formation, HTRF). The class given is cell-based. Particulars: V79 cells stably expressing human CYP11B2; substrate 125 nM 11-deoxycorticosterone; 3 hours. The method, then: Methods for V79-Human-CYP11B2 and V79-Human-CYP11B1 Assays: V79 cell lines stably expressing the either the human CYP11B2 or the human CYP11B1 enzyme were generated using a standard transfection protocol. V79 cells were transfected with plasmids pTriEx3-Hygro-hCyp11B2 or pTriEx3-Hygro-hCyp11B1 using Lipofectamine2000 reagent. V79 cells that stably express the human CYP11B2 or human CYP11B1 enzyme were selected for and maintained in DMEM supplemented with 10% FBS and 400 μg/mL hygromycin for ˜2 weeks. Single cell clones were generated by […] in DMEM supplemented with 10% FBS and 400 μg/mL hygromycin until single colonies were obtained. Clones V79-hCYP11B2-CLE9 and V79-hCYP11B1-8C7, were determined to produce the most aldosterone and cortisol, respectively, and were selected for inhibitor screening. For testing of inhibitors, cells were harvested at 80% confluency with 0.5% Trypsan-EDTA, washed once in PBS, and reconstituted in DMEM 0.1% BSA media at a cell concentration of 400,000 cells/mL. 25 μl of cells were added to a 384 well tissue culture treated plate and mixed with 0.25 μl of inhibitor or DMSO (1% final DMSO concentration) for 1 hour at 37° C., 5% CO2. After pre-incubation with inhibitor, the reaction was initiated by adding 5 μl of substrate (final concentration of 125 nM 11-deoxycorticosterone for the CYP11B2 assay or 250 nM 11-deoxycortisol for the CYP11B1 assay). The reaction was carried out for 3 hours at 37° C., 5% CO2 and was stopped by harvesting the supernatants. The amount of product in the supernatant (aldosterone for CYP11B2 assay and cortisol for the CYP11B1 assay) was measured using HTRF-based assay kit (Aldosterone HTRF-CisBio#64ALDPEB, Cortisol HTRF-CisBio #63IDC002-CORT). IC50's for the inhibitor were determined by plotting the amount of product formed against the concentration of inhibitor using sigmoidal dose-response curve (variable slope) fit in GraphPad.

`Fc1ccc2nc(-c3cncc4ccccc34)n(C3CC3)c2c1F` [Example 279, 4-(1-cyclopropyl-6,7-difluoro-1H-benzimidazol-2-yl)isoquinoline]: the values for the IC50 in assay [1] and in assay [2] were 206 nM and 0.282 nM, respectively.

In the case of `Cc1cncc(-c2nc3ccc(F)c(F)c3n2C2CC2)c1C` [Example 282, 1-cyclopropyl-2-(4,5-dimethylpyridin-3-yl)-6,7-difluoro-1H-benzimidazole], the IC50 in assay [1] came to 295 nM; in assay [2], 0.417 nM.

For `Cc1ccncc1-c1nc2ccc(F)c(F)c2n1C1CC1` [Example 284, 1-cyclopropyl-6,7-difluoro-2-(4-methylpyridin-3-yl)-1H-benzimidazole], the results for the 50% inhibitory concentration (IC50) in assay [1] and in assay [2] were 300 nM and 1.35 nM, respectively.

On to `Cn1c(-c2cnccc2C(F)(F)F)nc2cc(F)c(Cl)cc21` [Example 335, 6-chloro-5-fluoro-1-methyl-2-[4-(trifluoromethyl)pyridin-3-yl]-1H-benzimidazole], for which the IC50 was found to be 563 nM in assay [1] and 2.85 nM in assay [2].

For `Fc1cncc(-c2nc3cc(F)c(F)cc3n2OCc2ccccc2)c1` [Example 373, 1-(benzyloxy)-5,6-difluoro-2-(5-fluoropyridin-3-yl)-1H-benzimidazole], the IC50 came to 71.5 nM in assay [1] and 0.5 nM in assay [2].
